According to patent publication US20120122860A1, “SOLID FORMS OF SULFONAMIDES AND AMINO ACIDS” (Plexxikon, Inc., priority 2009, published 2012):

How the values were obtained:
B-Raf V600E = B-Raf V600E (Homo sapiens, UniProt P15056, V600E); assay: Kinase activity assay, B-Raf V600E; type: biochemical; details: read-out: activity toward kinase B-Raf V600E, IC50
Btk = Btk (Homo sapiens, UniProt Q06187); assay: Kinase activity assay, Btk
Fms = Fms (Homo sapiens, UniProt P07333); assay: Kinase activity assay, Fms
Kdr = Kdr (Homo sapiens, UniProt P35968); assay: Kinase activity assay, Kdr
Kit = Kit (Homo sapiens, UniProt P10721); assay: Kinase activity assay, Kit
TEC = molecular target: T1, TEC (Homo sapiens, UniProt P42680); assay: Kinase activity assay, TEC
T1 sequence (P42680 1-631): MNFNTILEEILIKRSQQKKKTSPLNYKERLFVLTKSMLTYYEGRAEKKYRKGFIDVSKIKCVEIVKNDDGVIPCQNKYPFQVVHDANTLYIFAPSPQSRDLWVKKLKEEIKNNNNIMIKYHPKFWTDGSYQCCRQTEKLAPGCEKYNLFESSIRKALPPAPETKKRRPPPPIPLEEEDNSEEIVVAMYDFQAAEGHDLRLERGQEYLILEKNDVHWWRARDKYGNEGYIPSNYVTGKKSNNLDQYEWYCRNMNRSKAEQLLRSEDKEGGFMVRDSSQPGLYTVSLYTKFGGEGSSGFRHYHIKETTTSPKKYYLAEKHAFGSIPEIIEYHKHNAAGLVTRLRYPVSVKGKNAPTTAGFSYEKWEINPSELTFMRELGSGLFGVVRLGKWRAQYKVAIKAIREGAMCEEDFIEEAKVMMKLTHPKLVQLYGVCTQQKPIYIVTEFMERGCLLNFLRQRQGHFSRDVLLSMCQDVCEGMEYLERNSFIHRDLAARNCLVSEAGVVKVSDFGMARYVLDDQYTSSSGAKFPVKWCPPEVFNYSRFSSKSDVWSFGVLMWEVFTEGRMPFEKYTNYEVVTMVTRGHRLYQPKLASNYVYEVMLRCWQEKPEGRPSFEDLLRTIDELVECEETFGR

Src = Src (Homo sapiens, UniProt P12931); assay: Kinase activity assay, Src
MAP4K4 = MAP4K4 (Homo sapiens, UniProt O95819); assay: Kinase activity assay, MAP4K4
B-Raf = B-Raf (Homo sapiens, UniProt P15056); assay: Kinase activity assay, B-Raf; type: biochemical; details: read-out: activity toward kinase B-Raf, IC50
C-Raf = C-Raf (Homo sapiens, UniProt P04049); assay: Kinase activity assay, C-Raf
Sequence of C-Raf (P04049 whole entry): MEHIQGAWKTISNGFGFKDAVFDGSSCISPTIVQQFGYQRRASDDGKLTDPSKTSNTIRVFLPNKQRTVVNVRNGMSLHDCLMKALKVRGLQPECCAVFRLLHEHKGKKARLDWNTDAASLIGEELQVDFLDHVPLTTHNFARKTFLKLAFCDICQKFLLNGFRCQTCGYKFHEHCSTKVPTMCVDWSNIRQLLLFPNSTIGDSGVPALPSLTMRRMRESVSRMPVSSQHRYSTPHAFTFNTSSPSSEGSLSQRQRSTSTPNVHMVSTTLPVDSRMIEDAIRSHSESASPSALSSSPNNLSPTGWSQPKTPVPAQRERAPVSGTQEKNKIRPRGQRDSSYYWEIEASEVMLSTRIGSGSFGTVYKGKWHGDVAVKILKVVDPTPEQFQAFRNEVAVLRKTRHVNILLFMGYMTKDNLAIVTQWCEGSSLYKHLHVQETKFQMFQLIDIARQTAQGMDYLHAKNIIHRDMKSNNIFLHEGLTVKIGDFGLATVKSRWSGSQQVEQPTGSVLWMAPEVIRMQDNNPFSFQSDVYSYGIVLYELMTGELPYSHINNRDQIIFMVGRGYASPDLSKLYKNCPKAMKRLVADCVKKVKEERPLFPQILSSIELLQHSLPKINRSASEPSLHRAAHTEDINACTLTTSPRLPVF

Sequence of MAP4K4 (O95819 whole entry): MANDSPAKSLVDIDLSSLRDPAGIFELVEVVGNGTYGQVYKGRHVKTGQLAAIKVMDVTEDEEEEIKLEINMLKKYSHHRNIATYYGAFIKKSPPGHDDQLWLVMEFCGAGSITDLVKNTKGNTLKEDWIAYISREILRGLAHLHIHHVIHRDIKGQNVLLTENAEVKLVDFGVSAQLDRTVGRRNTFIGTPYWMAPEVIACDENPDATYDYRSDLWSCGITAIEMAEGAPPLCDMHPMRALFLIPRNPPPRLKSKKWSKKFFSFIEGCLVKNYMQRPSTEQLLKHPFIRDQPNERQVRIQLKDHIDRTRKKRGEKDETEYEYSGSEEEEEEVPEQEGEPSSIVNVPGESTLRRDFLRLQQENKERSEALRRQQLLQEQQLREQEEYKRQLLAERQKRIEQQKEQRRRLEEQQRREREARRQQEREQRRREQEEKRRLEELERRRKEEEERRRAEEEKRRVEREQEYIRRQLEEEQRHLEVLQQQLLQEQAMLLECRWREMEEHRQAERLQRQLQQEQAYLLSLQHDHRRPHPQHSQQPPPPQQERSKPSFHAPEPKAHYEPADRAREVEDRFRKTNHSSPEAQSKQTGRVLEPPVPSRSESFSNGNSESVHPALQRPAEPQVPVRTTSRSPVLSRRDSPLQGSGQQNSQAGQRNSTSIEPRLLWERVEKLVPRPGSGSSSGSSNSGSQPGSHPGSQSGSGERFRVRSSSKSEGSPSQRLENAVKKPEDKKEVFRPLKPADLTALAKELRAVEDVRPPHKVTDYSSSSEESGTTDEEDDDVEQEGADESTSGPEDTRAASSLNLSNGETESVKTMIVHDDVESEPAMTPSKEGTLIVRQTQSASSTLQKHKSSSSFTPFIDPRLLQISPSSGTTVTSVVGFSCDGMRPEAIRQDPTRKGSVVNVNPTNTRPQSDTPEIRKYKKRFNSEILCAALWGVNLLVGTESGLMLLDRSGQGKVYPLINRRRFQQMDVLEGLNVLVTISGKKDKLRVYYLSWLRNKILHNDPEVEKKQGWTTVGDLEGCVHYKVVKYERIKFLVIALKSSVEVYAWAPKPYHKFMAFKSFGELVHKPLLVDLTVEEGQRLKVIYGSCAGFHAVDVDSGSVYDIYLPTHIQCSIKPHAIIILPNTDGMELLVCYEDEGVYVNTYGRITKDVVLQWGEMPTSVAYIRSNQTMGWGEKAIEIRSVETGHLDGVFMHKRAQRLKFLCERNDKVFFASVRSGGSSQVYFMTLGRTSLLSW
Sequence of B-Raf (P15056 whole entry): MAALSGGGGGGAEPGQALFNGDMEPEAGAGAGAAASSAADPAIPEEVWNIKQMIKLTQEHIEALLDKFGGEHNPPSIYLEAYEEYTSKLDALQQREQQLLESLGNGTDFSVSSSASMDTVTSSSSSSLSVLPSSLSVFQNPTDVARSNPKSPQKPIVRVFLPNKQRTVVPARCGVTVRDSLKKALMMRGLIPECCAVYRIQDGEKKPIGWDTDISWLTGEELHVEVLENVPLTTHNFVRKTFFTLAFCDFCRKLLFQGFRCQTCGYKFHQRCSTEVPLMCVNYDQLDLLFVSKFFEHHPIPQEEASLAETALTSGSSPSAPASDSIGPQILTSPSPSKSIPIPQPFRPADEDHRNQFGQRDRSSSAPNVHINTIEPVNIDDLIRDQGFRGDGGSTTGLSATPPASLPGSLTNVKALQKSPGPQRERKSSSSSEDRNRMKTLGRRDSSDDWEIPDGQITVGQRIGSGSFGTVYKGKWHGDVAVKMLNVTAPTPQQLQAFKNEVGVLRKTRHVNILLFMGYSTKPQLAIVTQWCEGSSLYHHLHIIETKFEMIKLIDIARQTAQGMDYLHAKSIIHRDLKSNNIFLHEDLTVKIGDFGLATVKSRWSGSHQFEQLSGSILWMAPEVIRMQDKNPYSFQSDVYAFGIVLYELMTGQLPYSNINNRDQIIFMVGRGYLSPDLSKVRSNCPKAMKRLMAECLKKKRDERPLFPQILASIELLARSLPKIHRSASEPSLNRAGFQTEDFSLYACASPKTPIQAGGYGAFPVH
Sequence of Src (P12931 whole entry): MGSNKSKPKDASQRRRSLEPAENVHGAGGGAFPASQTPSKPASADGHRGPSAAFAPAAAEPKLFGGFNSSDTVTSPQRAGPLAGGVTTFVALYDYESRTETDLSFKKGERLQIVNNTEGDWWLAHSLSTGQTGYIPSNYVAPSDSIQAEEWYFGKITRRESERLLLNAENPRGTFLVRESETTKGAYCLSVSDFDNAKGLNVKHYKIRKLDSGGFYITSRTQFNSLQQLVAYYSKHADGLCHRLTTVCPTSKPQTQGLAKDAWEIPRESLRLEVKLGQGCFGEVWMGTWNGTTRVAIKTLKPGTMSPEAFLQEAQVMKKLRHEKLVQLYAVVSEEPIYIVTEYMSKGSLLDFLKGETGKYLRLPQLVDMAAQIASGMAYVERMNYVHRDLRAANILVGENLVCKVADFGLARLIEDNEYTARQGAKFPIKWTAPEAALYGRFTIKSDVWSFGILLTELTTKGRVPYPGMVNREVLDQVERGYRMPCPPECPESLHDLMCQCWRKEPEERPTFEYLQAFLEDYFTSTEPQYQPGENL
Sequence of B-Raf V600E (P15056 whole entry V600E): as the sequence (P15056 whole entry) above, with V600E counted along it
Sequence of Kit (P10721 26-976): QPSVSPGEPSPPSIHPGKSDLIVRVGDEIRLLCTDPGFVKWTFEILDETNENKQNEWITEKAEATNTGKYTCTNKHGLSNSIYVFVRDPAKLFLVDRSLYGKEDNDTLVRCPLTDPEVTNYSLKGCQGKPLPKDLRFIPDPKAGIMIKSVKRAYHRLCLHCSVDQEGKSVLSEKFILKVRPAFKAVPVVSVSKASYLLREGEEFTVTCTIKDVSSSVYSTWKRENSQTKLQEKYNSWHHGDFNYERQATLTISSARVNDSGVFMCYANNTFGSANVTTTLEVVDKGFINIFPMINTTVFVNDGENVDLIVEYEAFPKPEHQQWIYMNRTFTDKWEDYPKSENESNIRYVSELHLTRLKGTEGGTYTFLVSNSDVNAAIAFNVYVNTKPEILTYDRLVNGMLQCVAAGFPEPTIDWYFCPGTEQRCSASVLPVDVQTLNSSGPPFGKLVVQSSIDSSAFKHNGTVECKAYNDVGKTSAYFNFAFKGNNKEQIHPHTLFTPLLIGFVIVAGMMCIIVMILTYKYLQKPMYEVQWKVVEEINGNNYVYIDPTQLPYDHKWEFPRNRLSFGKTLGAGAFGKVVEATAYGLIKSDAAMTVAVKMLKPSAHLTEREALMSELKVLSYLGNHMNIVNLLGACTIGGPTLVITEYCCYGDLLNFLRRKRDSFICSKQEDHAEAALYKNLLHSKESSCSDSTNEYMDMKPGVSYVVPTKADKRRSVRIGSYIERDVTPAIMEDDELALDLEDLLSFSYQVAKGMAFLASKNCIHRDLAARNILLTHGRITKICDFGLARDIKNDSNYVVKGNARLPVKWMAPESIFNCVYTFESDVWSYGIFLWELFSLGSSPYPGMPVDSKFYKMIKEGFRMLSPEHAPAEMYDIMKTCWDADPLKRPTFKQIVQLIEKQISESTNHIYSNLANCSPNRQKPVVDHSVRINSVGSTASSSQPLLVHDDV
Sequence of Btk (Q06187 whole entry): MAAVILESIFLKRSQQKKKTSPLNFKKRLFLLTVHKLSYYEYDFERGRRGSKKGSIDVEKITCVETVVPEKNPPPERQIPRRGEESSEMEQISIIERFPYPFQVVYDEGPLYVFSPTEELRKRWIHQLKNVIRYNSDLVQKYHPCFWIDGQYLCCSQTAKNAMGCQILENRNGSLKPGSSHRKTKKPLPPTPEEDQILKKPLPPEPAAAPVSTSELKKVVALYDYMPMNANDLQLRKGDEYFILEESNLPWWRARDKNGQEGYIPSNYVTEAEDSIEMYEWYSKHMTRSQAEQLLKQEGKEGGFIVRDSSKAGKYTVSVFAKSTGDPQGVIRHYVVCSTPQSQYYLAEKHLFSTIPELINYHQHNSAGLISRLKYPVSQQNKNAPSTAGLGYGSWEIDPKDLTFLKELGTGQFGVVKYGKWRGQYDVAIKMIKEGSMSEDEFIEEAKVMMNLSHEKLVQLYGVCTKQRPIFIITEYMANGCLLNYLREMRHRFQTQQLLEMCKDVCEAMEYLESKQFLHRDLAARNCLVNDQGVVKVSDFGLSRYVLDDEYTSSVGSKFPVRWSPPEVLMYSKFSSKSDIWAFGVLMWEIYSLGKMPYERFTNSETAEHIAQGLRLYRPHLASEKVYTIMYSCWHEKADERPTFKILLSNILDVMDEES

| IC50 (B-Raf V600E) | IC50 (Btk) | IC50 (Fms) | IC50 (Kdr) | IC50 (Kit) | IC50 (TEC) | IC50 (Src) | IC50 (MAP4K4) | IC50 (B-Raf) | IC50 (C-Raf) | Structure (SMILES) |
| --- | --- | --- | --- | --- | --- | --- | --- | --- | --- | --- |
| ≤ 10 µM | ≤ 10 µM | ≤ 10 µM | ≤ 10 µM | ≤ 10 µM | ≤ 10 µM | – | – | – | – | O=C(c1cc(NS(=O)(=O)c2cccc(F)c2)ccc1F)c1c[nH]c2ncccc12 [P-2120, 3-Fluoro-N-[4-fluoro-3-(1H-pyrrolo[2,3-b]pyridine-3-carbonyl)-phenyl]-benzenesulfonamide] |
| ≤ 10 µM | ≤ 10 µM | ≤ 10 µM | ≤ 10 µM | ≤ 10 µM | ≤ 10 µM | – | – | – | – | Cn1cc(-c2cnc3[nH]cc(C(=O)c4cccc(NS(=O)(=O)c5ccc(Cl)cc5)c4)c3c2)cn1 [P-2129, 4-Chloro-N-{3-[5-(1-methyl-1H-pyrazol-4-yl)-1H-pyrrolo[2,3-b]pyridine-3-carbonyl]-phenyl}-benzenesulfonamide] |
| ≤ 10 µM | ≤ 10 µM | ≤ 10 µM | ≤ 10 µM | ≤ 10 µM | ≤ 10 µM | – | – | – | – | Cn1cc(-c2cnc3[nH]cc(C(=O)c4cccc(NS(=O)(=O)c5ccc(F)cc5)c4)c3c2)cn1 [P-2130, 4-Fluoro-N-{3-[5-(1-methyl-1H-pyrazol-4-yl)-1H-pyrrolo[2,3-b]pyridine-3-carbonyl]-phenyl}-benzenesulfonamide] |
| ≤ 10 µM | ≤ 10 µM | ≤ 10 µM | ≤ 10 µM | ≤ 10 µM | ≤ 10 µM | – | – | – | – | Cn1cc(-c2cnc3[nH]cc(C(=O)c4cccc(NS(=O)(=O)c5cccc(C(F)(F)F)c5)c4)c3c2)cn1 [P-2131, N-{3-[5-(1-Methyl-1H-pyrazol-4-yl)-1H-pyrrolo[2,3-b]pyridine-3-carbonyl]-phenyl}-3-trifluoromethyl-benzenesulfonamide] |
| ≤ 10 µM | ≤ 10 µM | ≤ 10 µM | ≤ 10 µM | ≤ 10 µM | ≤ 10 µM | – | – | – | – | Cn1cc(-c2cnc3[nH]cc(C(=O)c4cccc(NS(=O)(=O)c5cccc(Cl)c5)c4)c3c2)cn1 [P-2134, 3-Chloro-N-{3-[5-(1-methyl-1H-pyrazol-4-yl)-1H-pyrrolo[2,3-b]pyridine-3-carbonyl]-phenyl}-benzenesulfonamide] |
| ≤ 10 µM | ≤ 10 µM | ≤ 10 µM | ≤ 10 µM | ≤ 10 µM | ≤ 10 µM | – | – | – | – | Cn1cc(-c2cnc3[nH]cc(C(=O)c4cccc(NS(=O)(=O)c5cccc(F)c5)c4)c3c2)cn1 [P-2136, 3-Fluoro-N-{3-[5-(1-methyl-1H-pyrazol-4-yl)-1H-pyrrolo[2,3-b]pyridine-3-carbonyl]-phenyl}-benzenesulfonamide] |
| – | ≤ 10 µM | ≤ 10 µM | ≤ 10 µM | ≤ 10 µM | ≤ 10 µM | ≤ 10 µM | ≤ 10 µM | – | – | CS(=O)(=O)c1cccc(-c2cnc3[nH]cc(C(=O)c4cc(NS(=O)(=O)c5cccnc5)ccc4F)c3c2)c1 [P-2138, Pyridine-3-sulfonic acid {4-fluoro-3-[5-(3-methanesulfonyl-phenyl)-1H-pyrrolo[2,3-b]pyridine-3-carbonyl]-phenyl}-amide] |
| ≤ 10 µM | ≤ 10 µM | ≤ 10 µM | ≤ 10 µM | ≤ 10 µM | ≤ 10 µM | ≤ 10 µM | – | – | – | CCCS(=O)(=O)Nc1ccc(F)c(C(=O)c2c[nH]c3ncc(-c4ccc(NC(C)=O)cc4)cc23)c1F [P-2161, N-(4-{3-[2,6-Difluoro-3-(propane-1-sulfonylamino)-benzoyl]-1H-pyrrolo[2,3-b]pyridin-5-yl}-phenyl)-acetamide] |
| ≤ 10 µM | ≤ 10 µM | ≤ 10 µM | ≤ 10 µM | ≤ 10 µM | ≤ 10 µM | ≤ 10 µM | – | ≤ 10 µM | – | CCCS(=O)(=O)Nc1ccc(F)c(C(=O)c2c[nH]c3ncc(-c4cnn(CCN5CCOCC5)c4)cc23)c1F [P-2177, Propane-1-sulfonic acid (2,4-difluoro-3-{5-[1-(2-morpholin-4-yl-ethyl)-1H-pyrazol-4-yl]-1H-pyrrolo[2,3-b]pyridine-3-carbonyl}-phenyl)-amide] |
| ≤ 10 µM | ≤ 10 µM | ≤ 10 µM | ≤ 10 µM | ≤ 10 µM | ≤ 10 µM | ≤ 10 µM | – | ≤ 10 µM | – | CCS(=O)(=O)Nc1ccc(F)c(C(=O)c2c[nH]c3ncc(-c4cnn(C)c4)cc23)c1F [P-2271, Ethanesulfonic acid {2,4-difluoro-3-[5-(1-methyl-1H-pyrazol-4-yl)-1H-pyrrolo[2,3-b]pyridine-3-carbonyl]-phenyl}-amide] |
| ≤ 10 µM | ≤ 10 µM | – | ≤ 10 µM | – | ≤ 10 µM | ≤ 10 µM | ≤ 10 µM | – | ≤ 10 µM | CCC(C)S(=O)(=O)Nc1ccc(F)c(C(=O)c2c[nH]c3ncc(OC)cc23)c1F (stereo not drawn) [P-2308, Butane-2-sulfonic acid [2,4-difluoro-3-(5-methoxy-1H-pyrrolo[2,3-b]pyridine-3-carbonyl)-phenyl]-amide] |
| ≤ 10 µM | ≤ 10 µM | ≤ 10 µM | ≤ 10 µM | ≤ 10 µM | ≤ 10 µM | ≤ 10 µM | – | ≤ 10 µM | – | Cn1cc(-c2cnc3[nH]cc(C(=O)c4c(F)ccc(NS(=O)(=O)C5CC5)c4F)c3c2)cn1 [P-2352, Cyclopropanesulfonic acid {2,4-difluoro-3-[5-(1-methyl-1H-pyrazol-4-yl)-1H-pyrrolo[2,3-b]pyridine-3-carbonyl]-phenyl}-amide] |
| – | ≤ 10 µM | ≤ 10 µM | – | – | ≤ 10 µM | – | – | – | – | O=C(c1cc(NS(=O)(=O)N2CCCCC2)ccc1F)c1c[nH]c2ncccc12 [P-2440, Piperidine-1-sulfonic acid [4-fluoro-3-(1H-pyrrolo[2,3-b]pyridine-3-carbonyl)-phenyl]-amide] |
| ≤ 10 µM | ≤ 10 µM | ≤ 10 µM | ≤ 10 µM | ≤ 10 µM | ≤ 10 µM | – | – | – | – | CCCS(=O)(=O)Nc1cccc(C(=O)c2c[nH]c3ncc(-c4cnn(C)c4)cc23)c1 [P-2454, Propane-1-sulfonic acid {3-[5-(1-methyl-1H-pyrazol-4-yl)-1H-pyrrolo[2,3-b]pyridine-3-carbonyl]-phenyl}-amide] |
| ≤ 10 µM | ≤ 10 µM | ≤ 10 µM | ≤ 10 µM | ≤ 10 µM | ≤ 10 µM | – | – | – | – | CCCCS(=O)(=O)Nc1cccc(C(=O)c2c[nH]c3ncc(-c4cnn(C)c4)cc23)c1 [P-2455, Butane-1-sulfonic acid {3-[5-(1-methyl-1H-pyrazol-4-yl)-1H-pyrrolo[2,3-b]pyridine-3-carbonyl]-phenyl}-amide] |
| – | ≤ 10 µM | ≤ 10 µM | ≤ 10 µM | ≤ 10 µM | ≤ 10 µM | – | ≤ 10 µM | – | – | CS(=O)(=O)c1cccc(-c2cnc3[nH]cc(C(=O)c4cccc(NS(=O)(=O)C5CCCCC5)c4)c3c2)c1 [P-2461, Cyclohexanesulfonic acid {3-[5-(3-methanesulfonyl-phenyl)-1H-pyrrolo[2,3-b]pyridine-3-carbonyl]-phenyl}-amide] |
| ≤ 10 µM | ≤ 10 µM | ≤ 10 µM | ≤ 10 µM | ≤ 10 µM | ≤ 10 µM | – | ≤ 10 µM | – | – | COc1cnc2[nH]cc(C(=O)c3cccc(NS(=O)(=O)C4CCCC4)c3)c2c1 [P-2464, Cyclopentanesulfonic acid [3-(5-methoxy-1H-pyrrolo[2,3-b]pyridine-3-carbonyl)-phenyl]-amide] |
| ≤ 10 µM | ≤ 10 µM | ≤ 10 µM | ≤ 10 µM | ≤ 10 µM | ≤ 10 µM | – | – | – | – | O=C(c1cc(NS(=O)(=O)N2CCCCC2)ccc1F)c1c[nH]c2ncc(Cl)cc12 [P-2468, Piperidine-1-sulfonic acid [3-(5-chloro-1H-pyrrolo[2,3-b]pyridine-3-carbonyl)-4-fluoro-phenyl]-amide] |
| – | ≤ 10 µM | ≤ 10 µM | ≤ 10 µM | ≤ 10 µM | ≤ 10 µM | – | – | – | – | O=C(c1cccc(NS(=O)(=O)N2CCCCC2)c1)c1c[nH]c2ncc(Cl)cc12 [P-2471, Piperidine-1-sulfonic acid [3-(5-chloro-1H-pyrrolo[2,3-b]pyridine-3-carbonyl)-phenyl]-amide] |
